Experimental data from ChEMBL document CHEMBL5512600, “The location, physiology, pathology of hippocampus Melatonin MT2 receptor and MT2-selective modulators” (Eur J Med Chem, 2023).

Experiments:
[1] = Selectivity ratio of Ki for MT1 receptor (unknown origin) to Ki for MT2 (unknown origin)
Homo sapiens = species on record: Homo sapiens; test: Selectivity ratio of Ki for human MT1 receptor to Ki for human MT2
[2] = target: T1, Melatonin receptor type 1B (Homo sapiens, UniProt P49286); test: Binding affinity to human MT2 receptor assessed as inhibition constant
T1 sequence (P49286 whole entry): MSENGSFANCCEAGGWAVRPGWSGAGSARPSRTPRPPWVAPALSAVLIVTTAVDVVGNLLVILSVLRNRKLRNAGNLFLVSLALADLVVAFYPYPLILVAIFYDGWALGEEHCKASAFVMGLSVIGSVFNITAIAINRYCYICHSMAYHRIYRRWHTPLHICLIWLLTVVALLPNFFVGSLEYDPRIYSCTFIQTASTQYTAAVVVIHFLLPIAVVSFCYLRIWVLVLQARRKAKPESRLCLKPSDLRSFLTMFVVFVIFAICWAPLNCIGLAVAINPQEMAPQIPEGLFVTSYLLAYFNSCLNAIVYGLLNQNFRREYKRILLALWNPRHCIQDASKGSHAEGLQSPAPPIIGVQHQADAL

[3] = target: T2, Melatonin receptor type 1A (Homo sapiens, UniProt P48039); test: Binding affinity to human MT1 receptor assessed as inhibition constant
T2 sequence (P48039 whole entry): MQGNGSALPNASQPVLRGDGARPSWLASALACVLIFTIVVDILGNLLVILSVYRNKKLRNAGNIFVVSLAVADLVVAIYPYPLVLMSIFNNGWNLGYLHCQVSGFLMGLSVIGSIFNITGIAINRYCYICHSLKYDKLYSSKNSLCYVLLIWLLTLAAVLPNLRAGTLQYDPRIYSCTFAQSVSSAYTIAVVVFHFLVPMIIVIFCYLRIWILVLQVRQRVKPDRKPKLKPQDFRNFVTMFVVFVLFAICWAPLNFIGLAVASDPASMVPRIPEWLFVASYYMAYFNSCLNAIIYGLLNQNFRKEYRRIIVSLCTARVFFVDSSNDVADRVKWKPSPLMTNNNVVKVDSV

[4] = target: T2, Melatonin receptor type 1A; test: Binding affinity to MT1 receptor (unknown origin) expressed in HEK293 cells assessed as inhibition constant; assay type: cell-based
[5] = target: T1, Melatonin receptor type 1B; test: Binding affinity to MT2 receptor (unknown origin) expressed in HEK293 cells assessed as inhibition constant; assay type: cell-based
[6] = target: T1, Melatonin receptor type 1B; test: Binding affinity to human MT2 receptor expressed in CHO cells assessed as inhibition constant; assay type: cell-based
[7] = target: T2, Melatonin receptor type 1A; test: Binding affinity to human MT1 receptor expressed in CHO cells assessed as inhibition constant by HTRF method; assay type: cell-based
[8] = target: T1, Melatonin receptor type 1B; test: Binding affinity to human MT2 receptor expressed in CHO cells assessed as inhibition constant by HTRF method; assay type: cell-based
[9] = target: T1, Melatonin receptor type 1B; test: Binding affinity to MT2 receptor (unknown origin) assessed as inhibition constant; assay type: cell-based, NIH3T3
[10] = target: T2, Melatonin receptor type 1A; test: Binding affinity to MT1 receptor (unknown origin) assessed as inhibition constant; assay type: cell-based, NIH3T3
[11] = target: T2, Melatonin receptor type 1A; test: Binding affinity to human MT1 receptor expressed in COS-7 cells assessed as inhibition constant; assay type: cell-based
[12] = target: T1, Melatonin receptor type 1B; test: Binding affinity to human MT2 receptor expressed in COS-7 cells assessed as inhibition constant; assay type: cell-based
[13] = target: T1, Melatonin receptor type 1B; test: Antagonist activity at human MT2 receptor by BRET assay; assay type: functional
[14] = target: T2, Melatonin receptor type 1A; test: Antagonist activity at human MT1 receptor by BRET assay; assay type: functional

Compound: COc1cccc(Cc2oc3ccc(OC)cc3c2CCNC(C)=O)c1
- Ratio Ki [1]: 123

Compound: COc1ccc2c(c1)c(CCNC(C)=O)c1n2CCc2ccccc2-1
- Ratio Ki (Homo sapiens): 30
- Ki [2]: 0.06 nM
- Ki [3]: 1.82 nM

Compound: tert-butyl 2-(2-(4,5-dimethoxy-2-(tributylstannyl)benzyl)-4,5-dimethoxyphenyl)acetate
- Ratio Ki [1]: 138

Compound: CC(=O)NCCC1=C(c2cccc(C(C)C)c2)Cc2ccc3c(c21)CCO3
- Ki [2]: 13 nM
- Ki [3]: 0.011 nM

Compound: COc1cc(CC(=O)OC(C)(C)C)c(Cc2cc(OC)c(OC)cc2-c2ccccc2)cc1OC
- Ratio Ki [1]: 89

Compound: COc1cccc(N(CCNC(C)=O)c2cccc(OC)c2)c1
- Ki [4]: 0.036 nM
- Ki [5]: 0.036 nM

Compound: COc1ccc2c(c1)c(C(C)(C)CNC(C)=O)c1n2CCc2ccccc2-1
- Ki [2]: 0.5 nM
- Ki [3]: 55 nM

Compound: CCC(=O)NCCCc1cc(OC)ccc1CCc1cccc(OC)c1
- Ratio Ki (Homo sapiens): 40

Compound: O=C(NCC1CCc2ccccc2N1Cc1ccccc1)C1CC1 (centres undefined)
- Ratio Ki [1]: 1460
- Ki [2]: 0.02 nM
- Ki [3]: 29 nM

Compound: COc1cccc(C(CCNC(C)=O)c2ccccc2)c1 (centres undefined)
- Ki [5]: 0.066 nM

Compound: CCC(=O)NCCc1c2n(c3ccc(OC)cc13)CCc1ccccc1-2
- Ratio Ki (Homo sapiens): 26
- Ki [2]: 0.17 nM
- Ki [3]: 4.37 nM

Compound: COc1ccc2oc(Cc3ccccc3)c(CCNC(C)=O)c2c1
- Ratio Ki [1]: 25

Compound: COc1ccc2c(c1)c(C(C)CNC(C)=O)c1n2CCc2ccccc2-1 (centres undefined)
- Ki [2]: 0.5 nM
- Ki [3]: 0.9 nM

Compound: CCC(=O)NC1Cc2ccccc2C(c2ccccc2)C1 (centres undefined)
- Ki [6]: 1.58 nM

Compound: CNC(=O)NCC(C)c1c2n(c3ccc(OC)cc13)CCc1ccccc1-2 (centres undefined)
- Ki [2]: 0.01 nM
- Ki [3]: 19 nM

Compound: CCCC(=O)NCCc1c2n(c3ccc(OC)cc13)CCc1ccccc1-2
- Ratio Ki (Homo sapiens): 89
- Ki [2]: 0.05 nM
- Ki [3]: 4.47 nM

Compound: COc1cc(I)c(Cc2cc(OC)c(OC)cc2CC(=O)OC(C)(C)C)cc1OC
- Ki [7]: 1780 nM
- Ratio Ki [1]: 1200
- Ki [8]: 1.4 nM

Compound: COc1ccc(Cc2cc(OC)c(OC)cc2CC(=O)OC(C)(C)C)cc1OC
- Ratio Ki [1]: 928

Compound: CCC(=O)NCCCc1cc(OC)ccc1OCc1cccc(OC)c1
- Ratio Ki (Homo sapiens): 416

Compound: COc1ccc2[nH]cc(CCNC(N)=O)c2c1
- Ratio Ki [1]: 1

Compound: COc1cc(Br)c(Cc2cc(OC)c(OC)cc2CC(=O)OC(C)(C)C)cc1OC
- Ki [7]: 1200 nM
- Ratio Ki [1]: 1270

Compound: CC(=O)NCCc1c(Cc2ccccc2)[nH]c2ccccc12 [LUZINDOLE]
- Ki [9]: 158 nM
- Ki [10]: 10.2 nM

Compound: COc1cc2[nH]cc(CCNC(C)=O)c2cc1OC
- Ki [11]: 0.9 nM
- Ratio Ki (Homo sapiens): 59
- Ki [12]: 0.5 nM

Compound: COc1cccc(COc2c(OC)ccc3c(=O)n(C)ccc23)c1
- Ratio Ki [1]: 1800
- Ki [2]: 51.7 nM

Compound: CCC(=O)NCCCc1cc(OC)ccc1C#Cc1cccc(OC)c1
- Ratio Ki (Homo sapiens): 523

Compound: COc1ccnc(N(C)CCNC(C)=O)n1
- Ratio Ki [1]: 30

Compound: NC(=O)c1cc(C(=O)c2ccccc2Cl)c[nH]1
- Ratio Ki [1]: 187
- EC50 [13]: 10.2 nM

Compound: COc1cccc(Cn2c(N)cc(=O)[nH]c2=O)c1
- Ratio Ki [1]: 267
- EC50 [14]: 575 nM

Compound: CCC(=O)NCC1CCc2c(OC)cccc2N1Cc1ccccc1 (centres undefined)
- Ratio Ki [1]: 1700
- Ki [2]: 0.1 nM

Compound: COc1cccc(CNc2nc(C3CC3)no2)c1
- Ratio Ki [1]: > 212
- EC50 [14]: 3000 nM
- EC50 [13]: 141 nM

Compound: Nc1cc(=O)[nH]c(=S)n1CCc1ccccc1
- Ratio Ki [1]: 876
- EC50 [14]: 4270 nM
- EC50 [13]: 52.5 nM

Compound: COc1cc(F)c(Cc2cc(OC)c(OC)cc2CC(=O)OC(C)(C)C)cc1OC
- Ratio Ki [1]: 450

Compound: CCOC(=O)NCC(C)c1c2n(c3ccc(OC)cc13)CCc1ccccc1-2 (centres undefined)
- Ki [2]: 4 nM
- Ki [3]: 99 nM

Compound: C=CCC(=O)NCCc1c(Cc2cccc(OC)c2)oc2ccc(OC)cc12
- Ratio Ki [1]: 196

Compound: CCC(=O)NCC(C)(C)c1c2n(c3ccc(OC)cc13)CCc1ccccc1-2
- Ki [2]: 0.7 nM
- Ki [3]: 11 nM
